# From patent publication US11738022B2, “Methods for inducing pupil dilation” (THE REGENTS OF THE UNIVERSITY OF COLORADO, A BODY CORPORATE, priority 2017, dated 2023)
# Columns and labels:
# [1] = test system: pupil; test: Pupil dilation measured with Neuroptics pupillometer after α-2 agonist pre-treatment and/or phenylephrine; assay type: in vivo, human
# Procedure: Dilation medication used was Phenylephrine hydrochloride 10% (Akorn, Inc). Pupillometer used was a Neuroptics DP-2000 Binocular Pupillometer).
# Dilation using phenylephrine hydrochloride 10% was conducted in both eyes of the test subject to use as a control against the other compounds being tested.
# After this, dilation using phenylephrine hydrochloride 2.5% or phenylephrine hydrochloride 10% was conducted to investigate the effects of the compound on pupil dilation.
# Apracionidine 0.5% was administered in the right eye of the test subject three (3) times a day for 4 days. After this, dilation using phenylephrine hydrochloride 10% was conducted to investigate the effects of the compound on pupil dilation.
# After this, dilation using phenylephrine hydrochloride 10% was conducted to investigate the effects of the compound on pupil dilation.
# A washout period of multiple months was undertaken in between each experiment.
# Pupil measurements were obtained using a Neuroptics pupillometer. Parameters were as follows: Scotopic conditions for 1 second, followed by photopic conditions for 4 seconds (1258.925 lux), followed by scotopic conditions for 10 seconds. This allowed for investigation of scotopic pupil size, photopic pupil size, and scotopic pupil size recovery after the light stimulus concluded.
# The pupils of the subject's pretreated right eye and untreated control left eye were then measured under both scotopic and photopic conditions for baseline measurements (FIG. 6A). Photopic conditions consisted of a 4 second window where a light was shining in both eyes simultaneously. […]
# The experiment was repeated at a higher dosage wherein the subject was administered a second ophthalmic formulation containing 10% phenylephrine to both eyes. 30 minutes after instillation of 10% phenylephrine, the pupils of the subject were then measured under both scotopic and photopic conditions (FIG. 6C). […] Because the area of a circle is dependent on the radius squared (area of a circle=πr^2), the increase in area that is created from a increasing the pupil dilation size is not linear.
# The results were then compared.
# [2] = test system: α receptors (α2:α1); conditions: affinity ratio; cited from earlier work
# [3] = test system: iris; conditions: men taking tamsulosin, 10 retrospective and prospective studies; cited from earlier work
# [4] = after pre-treatment of right eye only, 3 times a day for 4 days, before phenylephrine
# [5] = after pre-treatment of right eye only, 3 times a day for 4 days, before phenylephrine, left eye not treated
# [6] = dilation pre and post treatment with α 2 agonist: treated eye vs control measurements of same eye
# [7] = non-treated eye dilation compared to treated eye dilation
# [8] = photopic conditions (1258.925 lux) after dilation with phenylephrine 10%
# [9] = photopic conditions (1258.925 lux) after dilation with phenylephrine 10%, eye without pre-treatment
# [10] = right eye pre-treated 3 times a day for 4 days, then phenylephrine 10% both eyes
# [11] = right eye pre-treated 3 times a day for 4 days, then phenylephrine 10% both eyes, left eye not pre-treated
smiles,measurement,setting,value
"Cc1cccc([C@H](C)c2cnc[nH]2)c1C [Dexmedetomidine, dexmedetomidine]",increase of surgical work area compared to the pre-treatment control dilation amount in the same eye,[1]; after dilation with phenylephrine hydrochloride 10%,+220%
same,CH LStim Ave,[1]; [4],64%
same,CH RPupil Ave,[1]; [4],64%
same,CH RStim Ave,[1]; [4],64%
same,CH Right,[1]; [4],64%
same,CLAT LStim Ave,[1]; [4],0.36 s
same,CLAT RPupil Ave,[1]; [4],0.38 s
same,CLAT RStim Ave,[1]; [4],0.36 s
same,CLAT Right,[1]; [4],0.38 s
same,DELTA LStim Ave,[1]; [4],4.01 mm
same,DELTA RPupil Ave,[1]; [4],4.19 mm
same,DELTA RStim Ave,[1]; [4],4.01 mm
same,DV LStim Ave,[1]; [4],0.95 mm/s
same,DV RPupil Ave,[1]; [4],0.96 mm/s
same,DV RStim Ave,[1]; [4],0.95 mm/s
same,DV Right,[1]; [4],0.96 mm/s
same,MCV LStim Ave,[1]; [4],5.42 mm/s
same,MCV RPupil Ave,[1]; [4],5.84 mm/s
same,MCV RStim Ave,[1]; [4],5.42 mm/s
same,Max LStim Ave,[1]; [4],6.30 mm
same,Max RStim Ave,[1]; [4],6.30 mm
same,Max Right,[1]; [4],6.57 mm
same,Min LStim Ave,[1]; [4],2.29 mm
same,Min RPupil Ave,[1]; [4],2.38 mm
same,Min RStim Ave,[1]; [4],2.29 mm
same,Min Right,[1]; [4],2.38 mm
same,CH LPupil Ave,[1]; [5],64%
same,CH Left,[1]; [5],64%
same,CLAT LPupil Ave,[1]; [5],0.34 s
same,CLAT Left,[1]; [5],0.34 s
same,DELTA Left,[1]; [5],3.83 mm
same,DV Left,[1]; [5],0.94 mm/s
same,MCV Left,[1]; [5],4.99 mm/s
same,Max Left,[1]; [5],6.03 mm
same,Min Left,[1]; [5],2.20 mm
same,Pupil size change (%),[1]; [6],+78.83%
same,Surgical work area change (%),[1]; [6],+219.8%
same,Pupil size change (%),[1]; [7],+74.46%
same,Surgical work area (%),[1]; [7],+204.4%
same,"Pupil size, Treated eye",[1]; [8],6.42 mm
same,"Surgical Work area, Treated eye",[1]; [8],32.35 mm^2
same,"Pupil size, Non-treated eye",[1]; [9],3.68 mm
same,"Surgical Work area, Non-treated eye",[1]; [9],10.63 mm^2
same,CH LStim Ave,[1]; [10],46%
same,CH RPupil Ave,[1]; [10],34%
same,CH RStim Ave,[1]; [10],46%
same,CH Right,[1]; [10],34%
same,CLAT LStim Ave,[1]; [10],0.20 s
same,CLAT RPupil Ave,[1]; [10],0.16 s
same,CLAT RStim Ave,[1]; [10],0.20 s
same,CLAT Right,[1]; [10],0.16 s
same,DELTA LStim Ave,[1]; [10],4.22 mm
same,DELTA RPupil Ave,[1]; [10],3.31 mm
same,DELTA RStim Ave,[1]; [10],4.22 mm
same,DV LStim Ave,[1]; [10],0.94 mm/s
same,DV RPupil Ave,[1]; [10],0.80 mm/s
same,DV RStim Ave,[1]; [10],0.94 mm/s
same,DV Right,[1]; [10],0.80 mm/s
same,MCV LStim Ave,[1]; [10],3.24 mm/s
same,MCV RPupil Ave,[1]; [10],2.49 mm/s
same,MCV RStim Ave,[1]; [10],3.24 mm/s
same,Max LStim Ave,[1]; [10],9.27 mm
same,Max RStim Ave,[1]; [10],9.27 mm
same,Max Right,[1]; [10],9.73 mm
same,Min LStim Ave,[1]; [10],5.05 mm
same,Min RPupil Ave,[1]; [10],6.42 mm
same,Min RStim Ave,[1]; [10],5.05 mm
same,Min Right,[1]; [10],6.42 mm
same,CH LPupil Ave,[1]; [11],58%
same,CH Left,[1]; [11],58%
same,CLAT LPupil Ave,[1]; [11],0.24 s
same,CLAT Left,[1]; [11],0.24 s
same,DELTA Left,[1]; [11],5.13 mm
same,DV Left,[1]; [11],1.08 mm/s
same,MCV Left,[1]; [11],4.00 mm/s
same,Max Left,[1]; [11],8.81 mm
same,Min Left,[1]; [11],3.68 mm
same,α2:α1 affinity,[2],1620
CCOc1ccccc1OCCN[C@H](C)Cc1ccc(OC)c(S(N)(=O)=O)c1 [tamsulosin],risk of IFIS,[3],up to 90%
